Test results published in US8404738B2 (Hoffmann-La Roche Inc., priority 2011, dated 2013).
pEC50, pIC50: −log10 of the molar value.

Experiments:
[1] = system: p21 promoter-luciferase construct; experiment: p21 reporter gene induction (HeLa cells, p21 promoter-luciferase construct); conditions: for p21 RP3: relative gene level of p21 compared to MS275 at 3 μM; for p21 RP10: relative level of p21 compared to MS275 at 10 μM; for p21 RP30: relative level of p21 compared to MS275 at 30 μM;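 on all read-outs here: transfected HeLa cells exposed to compound for 15 h, luciferase luminescence read from lysates, p21 promoter lacks p53 site, proxy for cellular HDAC1/2/3 inhibition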
[2] = target: T1, recombinant human HDAC8 (Homo sapiens, UniProt Q9BY41); experiment: HDAC8 inhibition: recombinant HDAC8 fluorometric assay; format: biochemical; conditions: recombinant human HDAC8, substrate Ac-Arg-His-Lys-Lys(ε-acetyl)-AMC; read-out: HDAC8 IC50
T1 construct: made in house; host or cells: insect cells
T1 sequence (Q9BY41 1-377): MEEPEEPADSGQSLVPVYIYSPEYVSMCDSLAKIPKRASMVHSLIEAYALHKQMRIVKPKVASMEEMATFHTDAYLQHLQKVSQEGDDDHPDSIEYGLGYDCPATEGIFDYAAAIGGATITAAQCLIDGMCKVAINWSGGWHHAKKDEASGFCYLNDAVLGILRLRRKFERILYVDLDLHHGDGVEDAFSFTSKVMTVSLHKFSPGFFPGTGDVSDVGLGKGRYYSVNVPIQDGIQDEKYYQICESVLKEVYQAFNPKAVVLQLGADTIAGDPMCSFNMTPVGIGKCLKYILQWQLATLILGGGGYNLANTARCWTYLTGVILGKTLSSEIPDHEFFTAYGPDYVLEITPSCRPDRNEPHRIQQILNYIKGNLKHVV
Method in brief: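 Recombinant human HDAC8 from insect cells was preincubated with compound for 15 min at rt, then given Ac-Arg-His-Lys-Lys(ε-acetyl)-AMC substrate for 30 min at rt. IC50 came from normalized percent inhibition with curve fitting.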

[3] = target: T2, HDAC6 (Homo sapiens, UniProt Q9UBN7); experiment: Tubulin acetylation cytoblot assay (A549 cells); format: cell-based; conditions: 17-18 h incubation, tubulin acetylation as marker of HDAC6 inhibition, read-out: Tub-Ac EC50
T2 construct: endogenous in cells; host or cells: A549 cells
T2 sequence (Q9UBN7 1-1215): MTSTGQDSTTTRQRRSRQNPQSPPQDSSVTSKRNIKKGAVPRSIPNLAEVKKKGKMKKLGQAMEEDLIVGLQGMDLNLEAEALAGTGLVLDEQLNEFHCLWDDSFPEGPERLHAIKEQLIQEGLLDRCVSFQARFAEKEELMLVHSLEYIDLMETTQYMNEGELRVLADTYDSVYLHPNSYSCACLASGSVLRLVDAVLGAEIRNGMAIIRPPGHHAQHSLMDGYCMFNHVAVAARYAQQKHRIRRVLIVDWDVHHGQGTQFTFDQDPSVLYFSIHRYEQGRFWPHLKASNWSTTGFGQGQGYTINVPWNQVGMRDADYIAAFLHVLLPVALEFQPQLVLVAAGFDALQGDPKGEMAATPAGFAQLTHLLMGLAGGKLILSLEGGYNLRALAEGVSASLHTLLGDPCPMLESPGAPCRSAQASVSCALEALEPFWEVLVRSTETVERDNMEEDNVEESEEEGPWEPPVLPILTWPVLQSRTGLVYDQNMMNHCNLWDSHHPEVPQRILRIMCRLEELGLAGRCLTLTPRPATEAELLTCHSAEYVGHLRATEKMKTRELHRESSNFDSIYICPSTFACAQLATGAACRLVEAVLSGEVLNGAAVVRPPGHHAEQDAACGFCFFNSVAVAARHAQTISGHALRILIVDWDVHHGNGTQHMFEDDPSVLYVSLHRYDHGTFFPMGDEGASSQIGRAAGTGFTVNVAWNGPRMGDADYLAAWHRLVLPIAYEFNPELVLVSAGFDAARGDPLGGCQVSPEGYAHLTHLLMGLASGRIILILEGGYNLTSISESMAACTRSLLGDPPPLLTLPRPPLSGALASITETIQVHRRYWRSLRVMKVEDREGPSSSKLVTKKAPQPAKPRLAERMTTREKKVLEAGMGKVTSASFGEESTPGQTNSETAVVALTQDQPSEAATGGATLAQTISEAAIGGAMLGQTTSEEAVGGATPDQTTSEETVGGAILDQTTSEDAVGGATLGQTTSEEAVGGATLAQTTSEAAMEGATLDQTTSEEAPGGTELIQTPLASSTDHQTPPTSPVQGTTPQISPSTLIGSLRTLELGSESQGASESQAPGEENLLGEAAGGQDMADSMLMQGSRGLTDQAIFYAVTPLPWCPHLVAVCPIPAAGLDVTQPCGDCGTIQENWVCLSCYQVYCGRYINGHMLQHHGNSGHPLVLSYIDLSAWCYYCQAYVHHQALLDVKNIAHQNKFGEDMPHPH
Method in brief: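 Cells were exposed to compound for 17-18 h, then fixed with formaldehyde and permeabilized with cold MeOH. They were probed for 4 h at 4° C with anti-acetylated tubulin plus HRP anti-mouse IgG (each 1:750), and read by ECL luminescence. EC50 values came from curves normalized to top and bottom controls.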

O=C(NO)c1ccc(NC2CCN(c3ccc4ccccc4c3)C2=O)cc1 (stereo not drawn) [Example 38, N-Hydroxy-4-(1-naphthalen-2-yl-2-oxo-pyrrolidin-3-ylamino)-benzamide]
p21 RP3 [1]: 0.50
p21 RP10 [1]: 0.02
p21 RP30 [1]: −0.02
pIC50 [2]: 5.82
pEC50 [3]: 5.97

O=C(NO)c1ccc(NC2CCN(c3cccc4cccnc34)C2=O)cc1 (stereo not drawn) [Example 39, N-Hydroxy-4-(2-oxo-1-quinolin-8-yl-pyrrolidin-3-ylamino)-benzamide]
p21 RP3 [1]: 0.29
p21 RP10 [1]: 0.09
p21 RP30 [1]: 0.20
pIC50 [2]: 6.24
pEC50 [3]: 4.88

O=C(NO)c1ccc(NC2CCN(c3cccc4ncccc34)C2=O)cc1 (stereo not drawn) [Example 40, N-Hydroxy-4-(2-oxo-1-quinolin-5-yl-pyrrolidin-3-ylamino)-benzamide]
p21 RP3 [1]: 0.25
p21 RP10 [1]: 0.26
p21 RP30 [1]: 0.21
pIC50 [2]: 6.29
pEC50 [3]: 5.88

O=C(NO)c1ccc(NC2CCN(C3CCCCC3)C2=O)cc1 (stereo not drawn) [Example 41, 4-(1-Cyclohexyl-2-oxo-pyrrolidin-3-ylamino)-N-hydroxy-benzamide]
p21 RP3 [1]: 0.05
p21 RP10 [1]: 0.02
p21 RP30 [1]: 0.02
pIC50 [2]: 6.08
pEC50 [3]: 5.29

O=C(NO)c1ccc(NC2CCN(Cc3ccccc3)C2=O)cc1 (stereo not drawn) [Example 42]
p21 RP3 [1]: 0.02
p21 RP10 [1]: 0.09
p21 RP30 [1]: 0.34
pIC50 [2]: 6.19
pEC50 [3]: 4.94

C[C@H](c1ccccc1)N1CCC(Nc2ccc(C(=O)NO)cc2)C1=O (stereo partly drawn) [Example 44]
p21 RP3 [1]: −0.10
p21 RP10 [1]: 0.03
p21 RP30 [1]: 0.10
pIC50 [2]: 6.15
pEC50 [3]: 5.20

C[C@H](c1ccccc1)N1CCC(Nc2ccc(C(=O)NO)cc2)C1=O (stereo partly drawn) [Example 45]
p21 RP3 [1]: −0.19
p21 RP10 [1]: 0.02
p21 RP30 [1]: 0.13
pIC50 [2]: 6.19
pEC50 [3]: 5.08

CC(C)(c1ccccc1Cl)N1CCC(Nc2ccc(C(=O)NO)cc2)C1=O (stereo not drawn) [Example 48, 4-{1-[1-(2-Chloro-phenyl)-1-methyl-ethyl]-2-oxo-pyrrolidin-3-ylamino}-N-hydroxy-benzamide]
p21 RP3 [1]: 0.24
p21 RP10 [1]: 0.08
p21 RP30 [1]: 0.23
pIC50 [2]: 6.17
pEC50 [3]: 5.34

CC(C)(c1cccc(Cl)c1)N1CCC(Nc2ccc(C(=O)NO)cc2)C1=O (stereo not drawn) [Example 49, 4-{1-[1-(3-Chloro-phenyl)-1-methyl-ethyl]-2-oxo-pyrrolidin-3-ylamino}-N-hydroxy-benzamide]
p21 RP3 [1]: 0.41
p21 RP10 [1]: 0.50
p21 RP30 [1]: 0.85
pIC50 [2]: 6.31
pEC50 [3]: 5.01

CC(C)(c1ccc(Cl)cc1)N1CCC(Nc2ccc(C(=O)NO)cc2)C1=O (stereo not drawn) [Example 50, 4-{1-[1-(4-Chloro-phenyl)-1-methyl-ethyl]-2-oxo-pyrrolidin-3-ylamino}-N-hydroxy-benzamide]
p21 RP3 [1]: 0.17
p21 RP10 [1]: 0.17
p21 RP30 [1]: 0.53
pIC50 [2]: 6.17
pEC50 [3]: 5.06

CC(C)(c1ccc(-c2ccccc2)cc1)N1CCC(Nc2ccc(C(=O)NO)cc2)C1=O (stereo not drawn) [Example 51, 4-[1-(1-Biphenyl-4-yl-1-methyl-ethyl)-2-oxo-pyrrolidin-3-ylamino]-N-hydroxy-benzamide]
p21 RP3 [1]: −0.14
p21 RP10 [1]: 0.60
p21 RP30 [1]: 0.38
pIC50 [2]: 6.04
pEC50 [3]: 5.05

CC(C)(c1cccc2ccccc12)N1CCC(Nc2ccc(C(=O)NO)cc2)C1=O (stereo not drawn) [Example 52, N-Hydroxy-4-[1-(1-methyl-1-naphthalen-1-yl-ethyl)-2-oxo-pyrrolidin-3-ylamino]-benzamide]
p21 RP3 [1]: 0.14
p21 RP10 [1]: 0.53
p21 RP30 [1]: 0.58
pIC50 [2]: 5.98
pEC50 [3]: 5.55

CC(C)(c1ccc2ccccc2c1)N1CCC(Nc2ccc(C(=O)NO)cc2)C1=O (stereo not drawn) [Example 53, N-Hydroxy-4-[1-(1-methyl-1-naphthalen-2-yl-ethyl)-2-oxo-pyrrolidin-3-ylamino]-benzamide]
p21 RP3 [1]: 2.37
p21 RP10 [1]: 1.21
p21 RP30 [1]: 0.13
pIC50 [2]: 6.42
pEC50 [3]: 5.48

O=C(NO)c1ccc(NC2CCN(C3(c4ccccc4)CCCC3)C2=O)cc1 (stereo not drawn) [Example 55, N-Hydroxy-4-[2-oxo-1-(1-phenyl-cyclopentyl)-pyrrolidin-3-ylamino]-benzamide]
p21 RP3 [1]: 0.43
p21 RP10 [1]: 0.20
p21 RP30 [1]: 0.50
pIC50 [2]: 6.09
pEC50 [3]: 5.32

O=C(NO)c1ccc(NC2CCN(C3(c4ccccc4)CCCCC3)C2=O)cc1 (stereo not drawn) [Example 56, N-Hydroxy-4-[2-oxo-1-(1-phenyl-cyclohexyl)-pyrrolidin-3-ylamino]-benzamide]
p21 RP3 [1]: 0.37
p21 RP10 [1]: 0.07
p21 RP30 [1]: 0.14
pIC50 [2]: 5.95
pEC50 [3]: 5.55

CC1(Nc2ccc(C(=O)NO)cc2)CCN(c2ccccc2)C1=O (stereo not drawn) [Example 57, N-Hydroxy-4-(3-methyl-2-oxo-1-phenyl-pyrrolidin-3-ylamino)-benzamide]
p21 RP3 [1]: 0.05
p21 RP10 [1]: 0.03
p21 RP30 [1]: 0.01
pIC50 [2]: 5.53
pEC50 [3]: 5.58

CC1(Nc2ccc(C(=O)NO)cc2)CCN(c2cccc(F)c2)C1=O (stereo not drawn) [Example 58, 4-[1-(3-Fluoro-phenyl)-3-methyl-2-oxo-pyrrolidin-3-ylamino]-N-hydroxy-benzamide]
p21 RP3 [1]: 0.50
p21 RP10 [1]: 0.13
p21 RP30 [1]: 0.07
pIC50 [2]: 6.04
pEC50 [3]: 6.00

CC1(Nc2ccc(C(=O)NO)cc2)CCN(c2cccc(Cl)c2)C1=O (stereo not drawn) [Example 59, 4-[1-(3-Chloro-phenyl)-3-methyl-2-oxo-pyrrolidin-3-ylamino]-N-hydroxy-benzamide]
p21 RP3 [1]: 0.23
p21 RP10 [1]: 0.22
p21 RP30 [1]: 0.24
pIC50 [2]: 6.80
pEC50 [3]: 6.52

CC1(Nc2ccc(C(=O)NO)cc2)CCN(c2cnc3ccccc3c2)C1=O (stereo not drawn) [Example 61, N-Hydroxy-4-(3-methyl-2-oxo-1-quinolin-3-yl-pyrrolidin-3-ylamino)-benzamide]
p21 RP3 [1]: 0.46
p21 RP10 [1]: 0.09
p21 RP30 [1]: 0.17
pIC50 [2]: 5.85
pEC50 [3]: 5.08

CC1(Nc2ccc(C(=O)NO)cc2)CCN(c2cccc3cccnc23)C1=O (stereo not drawn) [Example 62, N-Hydroxy-4-(3-methyl-2-oxo-1-quinolin-8-yl-pyrrolidin-3-ylamino)-benzamide]
p21 RP3 [1]: 0.55
p21 RP10 [1]: 0.11
p21 RP30 [1]: 0.20
pIC50 [2]: 6.15
pEC50 [3]: 5.71

CC1(Nc2ccc(C(=O)NO)cc2)CCN(c2ccc3ncccc3c2)C1=O (stereo not drawn) [Example 63, N-Hydroxy-4-(3-methyl-2-oxo-1-quinolin-6-yl-pyrrolidin-3-ylamino)-benzamide]
p21 RP3 [1]: 0.47
p21 RP10 [1]: 0.15
p21 RP30 [1]: 0.22
pIC50 [2]: 6.05
pEC50 [3]: 6.44
